Data as given in the NIST ThermoML archive (doi:10.1016/j.jct.2010.06.009).

Assay: activity coefficient (dimensionless); of the first substance listed, at infinite dilution; xn = mol fraction of the nth substance listed
Conditions: 101 kPa, Liquid, Chromatography, x1 = 0

C=CCCCCCC [oct-1-ene] + CCCC[n+]1ccccc1.O=S(=O)([N-]S(=O)(=O)C(F)(F)F)C(F)(F)F
Conditions | activity coefficient
302.5 K | 22.3
313 K | 19.7
323.2 K | 18.4
332.8 K | 15.7
343 K | 13.6
352.9 K | 11.9

Cc1ccccc1 [toluene] + CCCCC[n+]1ccccc1.O=S(=O)([N-]S(=O)(=O)C(F)(F)F)C(F)(F)F
Conditions | activity coefficient
303.1 K | 1.28
312.8 K | 1.3
323.3 K | 1.33
333.3 K | 1.34
343.3 K | 1.36
353.5 K | 1.36

C#CCCCCC [1-heptyne] + CC[n+]1ccccc1.O=S(=O)([N-]S(=O)(=O)C(F)(F)F)C(F)(F)F
Conditions | activity coefficient
302.5 K | 8.41
313.2 K | 7.96
323 K | 7.5
333 K | 7.06
342.9 K | 6.53
353 K | 5.92

C#CCCCC [1-hexyne] + CCCC[n+]1ccccc1.O=S(=O)([N-]S(=O)(=O)C(F)(F)F)C(F)(F)F
Conditions | activity coefficient
303.5 K | 3.92
313.3 K | 3.72
323.2 K | 3.5
333.1 K | 3.29
343.1 K | 3.04
353.1 K | 2.82

CCO [ethanol] + CCCCC[n+]1ccccc1.O=S(=O)([N-]S(=O)(=O)C(F)(F)F)C(F)(F)F
Conditions | activity coefficient
302.8 K | 2.09
313.5 K | 1.86
323.4 K | 1.67
333.3 K | 1.5
343.2 K | 1.35
353.4 K | 1.19

c1ccccc1 [benzene] + CCCC[n+]1ccccc1.O=S(=O)([N-]S(=O)(=O)C(F)(F)F)C(F)(F)F
Conditions | activity coefficient
302.8 K | 1.33
312.6 K | 1.34
323.2 K | 1.35
333.2 K | 1.35
343.1 K | 1.35
353.3 K | 1.36

CC1CCCCC1 [methylcyclohexane] + CCCCC[n+]1ccccc1.O=S(=O)([N-]S(=O)(=O)C(F)(F)F)C(F)(F)F
Conditions | activity coefficient
303.1 K | 10.2
312.7 K | 9.39
323.4 K | 8.48
333.3 K | 7.64
343.3 K | 6.84
353.3 K | 6.08

C#CCCCC [1-hexyne] + CCCCC[n+]1ccccc1.O=S(=O)([N-]S(=O)(=O)C(F)(F)F)C(F)(F)F
Conditions | activity coefficient
302.8 K | 2.92
313.6 K | 2.82
323.4 K | 2.66
333.3 K | 2.53
343.3 K | 2.42
353.3 K | 2.29

Cc1ccc(C)cc1 [1,4-dimethylbenzene] + CC[n+]1ccccc1.O=S(=O)([N-]S(=O)(=O)C(F)(F)F)C(F)(F)F
Conditions | activity coefficient
302.6 K | 3.04
313.3 K | 3.05
323.2 K | 3.07
333.1 K | 3.08
343 K | 3.09
353.1 K | 3.11

C#CCCCCCC [1-octyne] + CC[n+]1ccccc1.O=S(=O)([N-]S(=O)(=O)C(F)(F)F)C(F)(F)F
Conditions | activity coefficient
302.5 K | 12.9
313.2 K | 12.3
323 K | 11.8
333 K | 11.1
342.9 K | 10.4
353 K | 9.74

C#CCCC [1-pentyne] + CCCC[n+]1ccccc1.O=S(=O)([N-]S(=O)(=O)C(F)(F)F)C(F)(F)F
Conditions | activity coefficient
302.2 K | 2.67
313.4 K | 2.4
323.2 K | 2.23
333.1 K | 2.04
343 K | 1.88
353.1 K | 1.68

C=CCCCC [hex-1-ene] + CCCCC[n+]1ccccc1.O=S(=O)([N-]S(=O)(=O)C(F)(F)F)C(F)(F)F
Conditions | activity coefficient
302.9 K | 6.22
312.8 K | 5.46
322.6 K | 4.84
333.4 K | 4.17
343.4 K | 3.55
353.4 K | 3.08

CCCCCCCCC [nonane] + CCCCC[n+]1ccccc1.O=S(=O)([N-]S(=O)(=O)C(F)(F)F)C(F)(F)F
Conditions | activity coefficient
303.2 K | 36
312.7 K | 33.3
323.4 K | 30.2
333.3 K | 27.3
343.3 K | 24.2
353.3 K | 21.4

Cc1cccc(C)c1 [1,3-dimethylbenzene] + CCCCC[n+]1ccccc1.O=S(=O)([N-]S(=O)(=O)C(F)(F)F)C(F)(F)F
Conditions | activity coefficient
303 K | 1.76
312.8 K | 1.8
323.5 K | 1.81
333.4 K | 1.84
343.3 K | 1.87
353.3 K | 1.91

CC1CCCCC1 [methylcyclohexane] + CC[n+]1ccccc1.O=S(=O)([N-]S(=O)(=O)C(F)(F)F)C(F)(F)F
Conditions | activity coefficient
302.8 K | 17.8
313.3 K | 15
323.1 K | 12.8
333 K | 10.8
342.9 K | 9.01
353 K | 7.49

Cc1cccc(C)c1 [1,3-dimethylbenzene] + CCCC[n+]1ccccc1.O=S(=O)([N-]S(=O)(=O)C(F)(F)F)C(F)(F)F
Conditions | activity coefficient
302.8 K | 2.47
312.5 K | 2.49
323.3 K | 2.5
333.3 K | 2.51
343.1 K | 2.52
353.3 K | 2.53

CCCCCC [hexane] + CCCC[n+]1ccccc1.O=S(=O)([N-]S(=O)(=O)C(F)(F)F)C(F)(F)F
Conditions | activity coefficient
302.8 K | 11.9
312.4 K | 10.4
323.2 K | 8.58
332.8 K | 7.59
343.3 K | 5.85
353.4 K | 4.75

Cc1ccccc1C [1,2-dimethylbenzene] + CC[n+]1ccccc1.O=S(=O)([N-]S(=O)(=O)C(F)(F)F)C(F)(F)F
Conditions | activity coefficient
303.1 K | 2.66
313.2 K | 2.67
323.3 K | 2.68
333.1 K | 2.7
343.1 K | 2.7
353.1 K | 2.71

C=CCCCCCCCC [1-decene] + CCCC[n+]1ccccc1.O=S(=O)([N-]S(=O)(=O)C(F)(F)F)C(F)(F)F
Conditions | activity coefficient
302.5 K | 46.7
313.2 K | 40.1
322.8 K | 39.6
332.8 K | 34.6
342.9 K | 31.2
353 K | 28.1

C#CCCCC [1-hexyne] + CC[n+]1ccccc1.O=S(=O)([N-]S(=O)(=O)C(F)(F)F)C(F)(F)F
Conditions | activity coefficient
302.5 K | 5.26
313.2 K | 4.95
323 K | 4.63
333 K | 4.18
342.9 K | 3.88
353 K | 3.47
